Results from US7973061B2, “Anaplastic lymphoma kinase modulators and methods of use” (Exelixis, Inc., priority 2004, dated 2011).

Biological target: T1, ALK (baculovirus expressed human ALK kinase domain F1098-K1410) (Homo sapiens, UniProt Q9UM73)
T1 construct: human ALK kinase domain F1098-K1410; made in house
Assay: biochemical
Conditions: 1 μM ATP, 4 μM poly-AEKY, 12 nM ALK, 2 hours at ambient temperature; read-out: ALK IC50
Summary of the method: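 Inhibitors were tested at 10 concentrations, and IC50 was derived from a sigmoidal fit (Min, Max, Hill slope). Kinase activity was measured as percent ATP left after a 2 h reaction at room temperature, detected by luciferase-luciferin chemiluminescence. The ATP level was set close to KM for the ALK kinase domain F1098-K1410.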

T1 sequence (Q9UM73 1098-1410): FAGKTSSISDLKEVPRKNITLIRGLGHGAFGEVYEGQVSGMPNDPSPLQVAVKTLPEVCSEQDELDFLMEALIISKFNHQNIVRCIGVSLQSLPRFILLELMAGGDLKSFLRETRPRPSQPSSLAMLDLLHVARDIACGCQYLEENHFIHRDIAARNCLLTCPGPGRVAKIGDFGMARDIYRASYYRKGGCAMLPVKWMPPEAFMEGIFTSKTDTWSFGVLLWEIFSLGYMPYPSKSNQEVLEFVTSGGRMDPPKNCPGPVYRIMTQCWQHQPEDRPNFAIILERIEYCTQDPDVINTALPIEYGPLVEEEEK

Compound	IC50 [nM]
COc1ccc(CCNC(=O)c2csc(CNC(=O)COc3ccc(OC(F)(F)F)cc3)n2)cc1 [Entry 9, N-{2-[4-(methyloxy)phenyl]ethyl}-2-({[({4-[(trifluoromethyl)oxy]phenyl}oxy)acetyl]amino}methyl)-1,3-thiazole-4-carboxamide]	< 50
CCOc1ccc(NC(=O)NCc2nc(C(=O)NCCc3cccc(Cl)c3)cs2)cc1 [Entry 184, N-[2-(3-chlorophenyl)ethyl]-2-{[({[4-(ethyloxy)phenyl]amino}carbonyl)amino]methyl}-1,3-thiazole-4-carboxamide]	50 to 500
O=C(COc1ccc(OC(F)(F)F)cc1)NCc1nc(C(=O)NCCSCc2ccco2)cs1 [Entry 71, N-{2-[(furan-2-ylmethyl)thio]ethyl}-2-({[({4-[(trifluoromethyl)oxy]phenyl}oxy)acetyl]amino}methyl)-1,3-thiazole-4-carboxamide]	50 to 500
O=C(COc1ccc(OC(F)(F)F)cc1)NCc1nc(C(=O)NCCc2cccs2)co1 [Entry 159, N-[2-(2-thienyl)ethyl]-2-({[({4-[(trifluoromethyl)oxy]phenyl}oxy)acetyl]amino}methyl)-1,3-oxazole-4-carboxamide]	50 to 500
CC(CNC(=O)c1csc(CNC(=O)COc2ccc(OC(F)(F)F)cc2)n1)c1ccccc1 (centres unmarked) [Entry 7, N-(2-phenylpropyl)-2-({[({4-[(trifluoromethyl)oxy]phenyl}oxy)acetyl]amino}methyl)-1,3-thiazole-4-carboxamide]	< 50
COc1ccc(CCNC(=O)c2csc(CNC(=O)COc3ccc(OC(F)(F)F)cc3)n2)cc1OC [Entry 42, N-{2-[3,4-bis(methyloxy)phenyl]ethyl}-2-({[({4-[(trifluoromethyl)oxy]phenyl}oxy)acetyl]amino}methyl)-1,3-thiazole-4-carboxamide]	50 to 500
CCCOCCCNC(=O)c1csc(CNC(=O)COc2ccc(OC(F)(F)F)cc2)n1 [Entry 74, N-[3-(propyloxy)propyl]-2-({[({4-[(trifluoromethyl)oxy]phenyl}oxy)acetyl]amino}methyl)-1,3-thiazole-4-carboxamide]	50 to 500
O=C(COc1ccc(OC(F)(F)F)cc1)NCc1nc(C(=O)NCc2cc(C(F)(F)F)ccc2Cl)cs1 [Entry 97, N-{[2-chloro-5-(trifluoromethyl)phenyl]methyl}-2-({[({4-[(trifluoromethyl)oxy]phenyl}oxy)acetyl]amino}methyl)-1,3-thiazole-4-carboxamide]	50 to 500
O=C(COc1ccc(OC(F)(F)F)cc1)NCc1nc(C(=O)NCCc2cccc(Cl)c2)cs1 [Entry 2, N-[2-(3-chlorophenyl)ethyl]-2-({[({4-[(trifluoromethyl)oxy]phenyl}oxy)acetyl]amino}methyl)-1,3-thiazole-4-carboxamide]	< 50
COc1cccc(CNC(=O)c2csc(CNC(=O)Nc3ccc(C(C)C)cc3)n2)c1OC [Entry 78, N-{[2,3-bis(methyloxy)phenyl]methyl}-2-{[({[4-(1-methylethyl)phenyl]amino}carbonyl)amino]methyl}-1,3-thiazole-4-carboxamide]	50 to 500
O=C(COc1ccc(OC(F)(F)F)cc1)NCc1nc(C(=O)NCc2cc(F)ccc2F)cs1 [Entry 61, N-[(2,5-difluorophenyl)methyl]-2-({[({4-[(trifluoromethyl)oxy]phenyl}oxy)acetyl]amino}methyl)-1,3-thiazole-4-carboxamide]	50 to 500
O=C(COc1ccc(OC(F)(F)F)cc1)NCc1nc(C(=O)NC(c2ccccc2)c2ccccc2)cs1 [Entry 167, N-(diphenylmethyl)-2-({[({4-[(trifluoromethyl)oxy]phenyl}oxy)acetyl]amino}methyl)-1,3-thiazole-4-carboxamide]	50 to 500
C[C@H](NC(=O)c1coc(CNC(=O)COc2ccc(OC(F)(F)F)cc2)n1)C1CCCCC1 [Entry 264, N-[(1S)-1-cyclohexylethyl]-2-({[({4-[(trifluoromethyl)oxy]phenyl}oxy)acetyl]amino}methyl)-1,3-oxazole-4-carboxamide]	500 to 2000
Cc1ccccc1CNC(=O)c1coc(CNC(=O)COc2ccc(OC(F)(F)F)cc2)n1 [Entry 288, N-[(2-methylphenyl)methyl]-2-({[({4-[(trifluoromethyl)oxy]phenyl}oxy)acetyl]amino}methyl)-1,3-oxazole-4-carboxamide]	500 to 2000
O=C(COc1ccc(OC(F)(F)F)cc1)NCc1nc(C(=O)NC2CCCc3ccccc32)cs1 (centres unmarked) [Entry 199, N-(1,2,3,4-tetrahydronaphthalen-1-yl)-2-({[({4-[(trifluoromethyl)oxy]phenyl}oxy)acetyl]amino}methyl)-1,3-thiazole-4-carboxamide]	50 to 500
CC(C)C(C)NC(=O)c1csc(CNC(=O)COc2ccc(OC(F)(F)F)cc2)n1 (centres unmarked) [Entry 197, N-(1,2-dimethylpropyl)-2-({[({4-[(trifluoromethyl)oxy]phenyl}oxy)acetyl]amino}methyl)-1,3-thiazole-4-carboxamide]	50 to 500
CCOc1cc(CCNC(=O)c2csc(CNC(=O)COc3ccc(OC(F)(F)F)cc3)n2)ccc1OC [Entry 20, N-{2-[3-(ethyloxy)-4-(methyloxy)phenyl]ethyl}-2-({[({4-[(trifluoromethyl)oxy]phenyl}oxy)acetyl]amino}methyl)-1,3-thiazole-4-carboxamide]	< 50
COc1ccccc1CNC(=O)c1csc(CNC(=O)Cc2ccc3ccccc3c2)n1 [Entry 229, N-{[2-(methyloxy)phenyl]methyl}-2-{[(naphthalen-2-ylacetyl)amino]methyl}-1,3-thiazole-4-carboxamide]	500 to 2000
CCCCCCNC(=O)c1csc(CNC(=O)COc2ccc(OC(F)(F)F)cc2)n1 [Entry 113, N-hexyl-2-({[({4-[(trifluoromethyl)oxy]phenyl}oxy)acetyl]amino}methyl)-1,3-thiazole-4-carboxamide]	50 to 500
O=C(COc1ccc(OC(F)(F)F)cc1)NCc1nc(C(=O)NCc2ccncc2)cs1 [Entry 285, N-(pyridin-4-ylmethyl)-2-({[({4-[(trifluoromethyl)oxy]phenyl}oxy)acetyl]amino}methyl)-1,3-thiazole-4-carboxamide]	500 to 2000
O=C(COc1ccc(OC(F)(F)F)cc1)NCc1nc(C(=O)NCc2cccc(I)c2)cs1 [Entry 157, N-[(3-iodophenyl)methyl]-2-({[({4-[(trifluoromethyl)oxy]phenyl}oxy)acetyl]amino}methyl)-1,3-thiazole-4-carboxamide]	50 to 500
O=C(NCCc1cccc(Cl)c1)c1csc(CNC(=O)C2(c3ccc(Cl)cc3)CC2)n1 [Entry 236, 2-[({[1-(4-chlorophenyl)cyclopropyl]carbonyl}amino)methyl]-N-[2-(3-chlorophenyl)ethyl]-1,3-thiazole-4-carboxamide]	500 to 2000
O=C(COc1ccc(OC(F)(F)F)cc1)NCc1nc(C(=O)N2CCN(c3c(Cl)cncc3Cl)CC2)cs1 [Entry 66, N-[(4-{[4-(3,5-dichloropyridin-4-yl)piperazin-1-yl]carbonyl}-1,3-thiazol-2-yl)methyl]-2-({4-[(trifluoromethyl)oxy]phenyl}oxy)acetamide]	50 to 500
